Experimental findings from patent US8906925B2, “Pyrido[4,3-B]indoles containing rigid moieties” (Medivation Technologies, Inc., priority 2008, dated 2014) are described below.

Assay [1] deals with T1, human recombinant serotonin (5-Hydroxytryptamine) 5-HT2C receptor (Homo sapiens, UniProt P28335).
T1 construct: expressed in transfected cells; host or cells: Chinese hamster ovary (CHO-K1) cells
T1 sequence (P28335 33-458): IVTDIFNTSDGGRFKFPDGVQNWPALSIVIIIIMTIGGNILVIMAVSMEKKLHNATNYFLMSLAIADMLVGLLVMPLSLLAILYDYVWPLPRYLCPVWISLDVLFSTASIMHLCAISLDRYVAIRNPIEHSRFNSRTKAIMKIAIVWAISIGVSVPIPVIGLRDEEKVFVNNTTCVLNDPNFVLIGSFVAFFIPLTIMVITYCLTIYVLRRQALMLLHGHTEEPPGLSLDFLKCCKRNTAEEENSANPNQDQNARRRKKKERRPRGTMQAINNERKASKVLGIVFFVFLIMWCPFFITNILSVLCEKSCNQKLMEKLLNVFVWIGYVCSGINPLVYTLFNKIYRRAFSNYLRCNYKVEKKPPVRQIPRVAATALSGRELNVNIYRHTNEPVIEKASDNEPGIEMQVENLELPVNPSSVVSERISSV
As to the kind of experiment: Serotonin 5-HT2C radioligand binding ([3H]Mesulergine). The settings on record: compound at 0.1 μM; read-out: Inhibition of ligand binding, Serotonin 5-HT2C (percent inhibition of specific binding). In short, it runs like this: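 Compounds tested at 1 μM or lower (1% DMSO vehicle) for displacement of 1 nM [3H]Mesulergine over 60 min at 25° C. Specific binding determined by filtration counting, with 1 μM Mianserin defining non-specific binding; values are percent inhibition.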

For assay [2], the target named is human dopamine D2L receptor (Homo sapiens, UniProt P14416). In words: Dopamine D2L radioligand binding ([3H]Spiperone). The conditions noted are these: percent inhibition of specific binding, compound at 1 μM; for inhibition at 1 µM: read-out: Inhibition of ligand binding, Dopamine D2L. The text has this:
Non-specific binding was estimated in the presence of […] Haloperidol. Receptor proteins were filtered and washed, the filters were then counted to determine [^3H]Spiperone specifically bound. […] Biochemical assay results are presented as the percent inhibition of specific binding in Table 9.

Assay [3] addresses T2, human recombinant serotonin (5-Hydroxytryptamine) 5-HT2A receptor (Homo sapiens, UniProt P28223).
T2 construct: expressed in transfected cells; host or cells: Chinese hamster ovary (CHO-K1) cells
As to the kind of experiment: Serotonin 5-HT2A radioligand binding ([3H]Ketanserin). The settings on record: read-out: Inhibition of ligand binding, Serotonin 5-HT2A (percent inhibition of specific binding), compound at 0.1 μM. Here is the method: Compounds of the invention were incubated with 0.5 nM [^3H]Ketanserin for 60 min. at 25° C. Non-specific binding was estimated in the presence of 1 μM Mianserin. Receptor proteins were filtered and washed, the filters were then counted to determine [^3H]Ketanserin specifically bound.

The target of assay [4] is histamine receptor H1 (Homo sapiens, UniProt P35367). In words: Histamine H1 radioligand binding ([3H]Pyrilamine). The conditions noted are these: for inhibition at 1 µM: read-out: Histamine Binding (1 μM) H1, percent inhibition of specific binding, 1 μM. In outline: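 Values are percent inhibition of specific [3H]pyrilamine (1.2 nM) binding with compounds at ≤1 μM (1% DMSO vehicle); 180 min incubation at 25 °C, pH 7.4 Tris buffer, on CHO-expressed human H1 receptor; 1 μM pyrilamine defined nonspecific binding, bound ligand counted after filtration.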
Chain of histamine receptor H1 (P35367 whole entry): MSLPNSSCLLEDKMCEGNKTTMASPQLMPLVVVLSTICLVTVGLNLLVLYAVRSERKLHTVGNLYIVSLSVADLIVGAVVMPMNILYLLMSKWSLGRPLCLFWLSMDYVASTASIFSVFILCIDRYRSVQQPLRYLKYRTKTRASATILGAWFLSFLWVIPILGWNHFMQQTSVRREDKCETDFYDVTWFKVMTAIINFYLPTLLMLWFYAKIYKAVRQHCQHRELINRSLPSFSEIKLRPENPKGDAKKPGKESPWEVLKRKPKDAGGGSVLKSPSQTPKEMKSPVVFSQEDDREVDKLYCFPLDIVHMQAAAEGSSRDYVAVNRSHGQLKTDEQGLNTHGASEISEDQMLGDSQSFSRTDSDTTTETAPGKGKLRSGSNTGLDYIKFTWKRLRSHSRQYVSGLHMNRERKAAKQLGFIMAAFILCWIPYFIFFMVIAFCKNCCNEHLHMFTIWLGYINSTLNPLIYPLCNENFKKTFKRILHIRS

The target in assay [5] is T3, human recombinant serotonin (5-Hydroxytryptamine) 5-HT6 receptor (Homo sapiens, UniProt P50406).
T3 construct: expressed in transfected cells; host or cells: human HeLa cells
T3 sequence (P50406 whole entry): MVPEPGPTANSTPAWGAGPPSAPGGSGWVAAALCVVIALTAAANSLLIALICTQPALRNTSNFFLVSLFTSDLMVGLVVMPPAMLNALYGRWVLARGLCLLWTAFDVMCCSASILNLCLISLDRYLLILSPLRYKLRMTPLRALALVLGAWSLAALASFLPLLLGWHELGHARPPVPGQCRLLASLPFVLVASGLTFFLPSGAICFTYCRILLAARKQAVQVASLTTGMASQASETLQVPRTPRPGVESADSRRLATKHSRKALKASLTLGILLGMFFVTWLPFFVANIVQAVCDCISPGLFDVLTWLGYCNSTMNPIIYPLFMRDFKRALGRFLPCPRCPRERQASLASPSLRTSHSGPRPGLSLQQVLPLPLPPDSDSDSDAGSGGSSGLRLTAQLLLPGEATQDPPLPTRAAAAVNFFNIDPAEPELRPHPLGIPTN
As to the kind of experiment: Serotonin 5-HT6 radioligand binding ([3H]LSD). The conditions noted are these: compound at 0.1 μM; read-out: Inhibition of ligand binding, Serotonin 5-HT6 (percent inhibition of specific binding). The method, then:
Compounds of the invention were incubated with 1.5 nM [3H]Lysergic acid diethylamide (LSD) for 120 min. at 37° C. […] Receptor proteins were filtered and washed, the filters were then counted to determine [3H]LSD specifically bound. Compounds were screened at 1 μM or lower, using 1% DMSO as vehicle. Biochemical assay results are presented as the percent inhibition of specific binding in Table 10.

Assay [6] has as its target human recombinant serotonin (5-Hydroxytryptamine) 5-HT7 receptor (Homo sapiens, UniProt P34969). As to the kind of experiment: Serotonin 5-HT7 radioligand binding ([3H]LSD). The conditions noted are these: compound at 0.1 μM; read-out: Inhibition of ligand binding, Serotonin 5-HT7 (percent inhibition of specific binding). The source says:
Receptor proteins were filtered and washed, the filters were then counted to determine [^3H]LSD specifically bound.

T2 sequence (P28223 whole entry): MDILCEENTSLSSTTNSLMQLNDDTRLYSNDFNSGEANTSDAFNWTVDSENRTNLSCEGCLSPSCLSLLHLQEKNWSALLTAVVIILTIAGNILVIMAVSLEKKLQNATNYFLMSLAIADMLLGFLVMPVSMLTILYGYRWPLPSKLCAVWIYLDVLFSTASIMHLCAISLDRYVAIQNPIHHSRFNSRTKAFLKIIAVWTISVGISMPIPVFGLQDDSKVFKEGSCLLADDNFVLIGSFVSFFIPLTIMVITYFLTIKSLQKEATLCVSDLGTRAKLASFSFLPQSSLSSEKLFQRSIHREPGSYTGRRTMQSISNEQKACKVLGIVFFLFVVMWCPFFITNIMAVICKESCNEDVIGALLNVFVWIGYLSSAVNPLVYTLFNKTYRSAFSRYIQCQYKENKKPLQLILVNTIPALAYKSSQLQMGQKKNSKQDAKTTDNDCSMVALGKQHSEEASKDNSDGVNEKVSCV
Chain of human recombinant serotonin (5-Hydroxytryptamine) 5-HT7 receptor (P34969 whole entry): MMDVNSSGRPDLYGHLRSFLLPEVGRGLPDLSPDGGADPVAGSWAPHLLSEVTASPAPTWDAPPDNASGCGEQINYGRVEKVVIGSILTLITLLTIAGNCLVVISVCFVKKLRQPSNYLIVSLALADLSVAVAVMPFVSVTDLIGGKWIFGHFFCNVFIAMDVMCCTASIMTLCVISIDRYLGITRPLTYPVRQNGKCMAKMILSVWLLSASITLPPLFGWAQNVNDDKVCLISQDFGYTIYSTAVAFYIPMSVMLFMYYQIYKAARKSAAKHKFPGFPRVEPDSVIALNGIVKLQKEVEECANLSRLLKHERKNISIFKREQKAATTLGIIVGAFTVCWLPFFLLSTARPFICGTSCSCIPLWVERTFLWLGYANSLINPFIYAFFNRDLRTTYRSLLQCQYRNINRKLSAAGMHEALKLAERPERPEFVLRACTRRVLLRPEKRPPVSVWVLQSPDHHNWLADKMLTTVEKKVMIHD
Chain of human dopamine D2L receptor (P14416 whole entry): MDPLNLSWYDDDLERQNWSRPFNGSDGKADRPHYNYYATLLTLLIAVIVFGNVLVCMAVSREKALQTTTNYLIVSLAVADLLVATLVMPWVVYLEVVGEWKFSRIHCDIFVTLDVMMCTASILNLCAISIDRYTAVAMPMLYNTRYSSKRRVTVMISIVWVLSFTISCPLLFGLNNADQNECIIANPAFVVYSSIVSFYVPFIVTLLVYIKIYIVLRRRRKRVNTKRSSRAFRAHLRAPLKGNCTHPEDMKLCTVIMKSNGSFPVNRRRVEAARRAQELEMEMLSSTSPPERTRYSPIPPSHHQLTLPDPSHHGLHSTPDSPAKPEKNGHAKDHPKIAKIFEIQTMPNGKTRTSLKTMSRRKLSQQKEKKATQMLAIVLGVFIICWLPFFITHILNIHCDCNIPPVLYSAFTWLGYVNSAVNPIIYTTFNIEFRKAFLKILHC

Regarding `CCC(O)(Cn1c2c(c3cc(Cl)ccc31)CN(C)CC2)c1ccncc1` (stereo not drawn) [Compound 195, 1-(8-chloro-2-methyl-3,4-dihydro-1H-pyrido[4,3-b]indol-5(2H)-yl)-2-(pyridin-4-yl)butan-2-ol], the inhibition at 0.1 µM amounted to 43% in assay [1], 62% in assay [3], 32% in assay [5] and 18% in assay [6]. For the same molecule, the inhibition at 1 µM in assay [2] came to 17%; in assay [4], 20%.

Turning to `CCN1CCc2c(c3ccccc3n2/C=C(\C)c2ccncc2)C1` [Compound 266, (E)-2-ethyl-5-(2-(pyridin-4-yl)prop-1-enyl)-2,3,4,5-tetrahydro-1H-pyrido[4,3-b]indole], the inhibition at 0.1 µM in assay [1] stood at 12%; in assay [3] it was 67%; in assay [5], 81%; in assay [6] it was 18%. In addition, the figures for the inhibition at 1 µM in assay [2] and in assay [4] were 94% and -1%, respectively.

In the case of `CC(=Cn1c2c(c3cc(Cl)ccc31)CN(C)CC2)c1ccc(F)cc1F` (stereo in doubt) [Compound 107, 8-chloro-5-((Z)-2-(2,4-difluorophenyl)prop-1-enyl)-2,3,4,5-tetrahydro-2-methyl-1H-pyrido[4,3-b]indole], the inhibition at 0.1 µM is 95% in assay [1], 96% in assay [3], 97% in assay [5] and 95% in assay [6]. Further, the “Inhibition of ligand binding, Dopamine D2L” value in assay [2] (1 µM) was found to be 72%. Moreover, the “Histamine Binding (1 μM) H1, percent inhibition of specific binding” value in assay [4] (1 μM) came to 88%.

With `C/C(=C\n1c2c(c3cc(Cl)c(Cl)cc31)CN(C)CC2)c1ccc(F)cc1` [Compound 248, (E)-7,8-dichloro-5-(2-(4-fluorophenyl)prop-1-enyl)-2-methyl-2,3,4,5-tetrahydro-1H-pyrido[4,3-b]indole], the inhibition at 0.1 µM in assay [1] came out at 92%; in assay [3], 108%; in assay [5], 101%; in assay [6] it was 57%. The inhibition at 1 µM in assay [2] came to 95%; in assay [4], 90%.

On to `CN1CCc2c(c3cc(Cl)ccc3n2CC(C)(O)c2cnccn2)C1` (stereo not drawn) [Compound 199, 1-(8-chloro-2-methyl-3,4-dihydro-1H-pyrido[4,3-b]indol-5(2H)-yl)-2-(pyrazin-2-yl)propan-2-ol], for which the inhibition at 0.1 µM is 33% in assay [1], 40% in assay [3], 25% in assay [5] and 30% in assay [6]. Also, the inhibition at 1 µM in assay [2] worked out at 16%; in assay [4], 61%.

As for `C/C(=C\n1c2c(c3cc(C)ccc31)CN(C)CC2)c1ccncn1` [Compound 279, (E)-2,8-dimethyl-5-(2-(pyrimidin-4-yl)prop-1-enyl)-2,3,4,5-tetrahydro-1H-pyrido[4,3-b]indole], the inhibition at 0.1 µM in assay [1] was found to be 70%; in assay [3] it was 75%; in assay [5], 90%; in assay [6], 53%. For the same molecule, the inhibition at 1 µM in assay [2] worked out at 69%; in assay [4] it was 21%.

For `Cc1ccc2c(c1)c1c(n2/C=C(\c2ccncc2)C(C)C)CCN(C)C1` [Compound 264, (Z)-2,8-dimethyl-5-(3-methyl-2-(pyridin-4-yl)but-1-enyl)-2,3,4,5-tetrahydro-1H-pyrido[4,3-b]indole], the inhibition at 0.1 µM in assay [1] is 94%; in assay [3], 99%; in assay [5], 89%; in assay [6], 51%. Also, the results for the inhibition at 1 µM in assay [2] and in assay [4] were 49% and 24%, respectively.

As to `C/C(=C\n1c2c(c3cc(Cl)ccc31)CN(C)C(C)C2)c1ccncc1` (stereo not drawn) [Compound 275, (E)-8-chloro-2,3-dimethyl-5-(2-(pyridin-4-yl)prop-1-enyl)-2,3,4,5-tetrahydro-1H-pyrido[4,3-b]indole], the inhibition at 0.1 µM in assay [1] is 98%; in assay [3], 93%; in assay [5], 101%; in assay [6] it was 72%. In addition, the inhibition at 1 µM amounted to 92% in assay [2] and 39% in assay [4].

In the case of `CCN1CCc2c(c3cc(C)ccc3n2/C=C(\C)c2ccncc2)C1` [Compound 269, (E)-2-ethyl-8-methyl-5-(2-(pyridin-4-yl)prop-1-enyl)-2,3,4,5-tetrahydro-1H-pyrido[4,3-b]indole], the inhibition at 0.1 µM in assay [1] came to 55%; in assay [3], 87%; in assay [5], 102%; in assay [6] it was 51%. Further, the inhibition at 1 µM was 91% in assay [2] and -2% in assay [4].

Regarding `C/C(=C\n1c2c(c3cc(OC(F)(F)F)ccc31)CN(C)CC2)c1ccncc1` [Compound 263, (E)-2-methyl-5-(2-(pyridin-4-yl)prop-1-enyl)-8-(trifluoromethoxy)-2,3,4,5-tetrahydro-1H-pyrido[4,3-b]indole], the inhibition at 0.1 µM in assay [1] turned out to be 18%; in assay [3] it was 64%; in assay [5], 99%; in assay [6], 15%. Moreover, the figures for the inhibition at 1 µM in assay [2] and in assay [4] were 89% and 8%, respectively.

Take `Cc1ccc2c(c1)c1c(n2CC(C)(O)c2ccncn2)CCN(C)C1` (stereo not drawn) [Compound 197, 1-(2,8-dimethyl-3,4-dihydro-1H-pyrido[4,3-b]indol-5(2H)-yl)-2-(pyrimidin-4-yl)propan-2-ol]: the inhibition at 0.1 µM in assay [1] was determined as 16%; in assay [3], 17%; in assay [5] it was 4%; in assay [6], 10%. The inhibition at 1 µM in assay [2] amounted to 14%; in assay [4], 61%.

With `C/C(=C/n1c2c(c3cc(Cl)ccc31)CN(C)CC2)c1ccc(Cl)c(Cl)c1` [Compound 256, (Z)-8-chloro-5-(2-(3,4-dichlorophenyl)prop-1-enyl)-2-methyl-2,3,4,5-tetrahydro-1H-pyrido[4,3-b]indole], the inhibition at 0.1 µM in assay [1] was determined as 90%; in assay [3], 100%; in assay [5] it was 96%; in assay [6], 85%. Moreover, the inhibition at 1 µM in assay [2] turned out to be 34%; in assay [4] it was 92%.

Turning to `C/C(=C\n1c2c(c3ccc(C(F)(F)F)cc31)CN(C)CC2)c1ccc(C)nc1` [Compound 250, (E)-2-methyl-5-(2-(6-methylpyridin-3-yl)prop-1-enyl)-7-(trifluoromethyl)-2,3,4,5-tetrahydro-1H-pyrido[4,3-b]indole], the inhibition at 0.1 µM in assay [1] came out at 31%; in assay [3] it was 36%; in assay [5], 13%; in assay [6] it was 33%. Moreover, the results for the inhibition at 1 µM in assay [2] and in assay [4] were 18% and 12%, respectively.

The inhibition is the relative decrease from the control value, in per cent.
